Assay results from patent US20150105252A1, “SUBSTITUTED PYRAZOLES AS HERBICIDES” (E I DU PONT DE NEMOURS AND COMPANY, priority 2013, published 2015).

How the values were obtained:
wheat [1] = experiment: Test C postemergence; format: in vivo, Triticum aestivum; details: postemergence; for Wheat plant response rating: 62 g ai/ha, scale 0 to 100
Description: (§1) Seeds of plant species selected from blackgrass (Alopecurus myosuroides), ryegrass, Italian (Italian ryegrass, Lolium multiflorum), wheat (winter wheat, Triticum aestivum), galium (catchweed bedstraw, Galium aparine), corn (Zea mays), crabgrass, large (large crabgrass, Digitaria sanguinalis), foxtail, giant (giant foxtail, Setaria faberii), johnsongrass (Sorghum halepense), lambsquarters (Chenopodium album), morningglory (Ipomoea coccinea), nutsedge, yellow (yellow nutsedge, Cyperus esculentus), pigweed (redroot pigweed, Amaranthus retroflexus), ragweed (common ragweed, Ambrosia elation), soybean (Glycine max), barnyardgrass (Echinochloa crus-galli), oilseed rape (Brassica napus), waterhemp (common waterhemp, Amaranthus rudis), oat, wild (wild oat, Avena fatua), kochia (Kochia scoparia), Surinam grass (Brachiaria decumbens), foxtail, green (green foxtail, Setaria viridis), goosegrass (Eleusine indica), bromegrass, downy (downy bromegrass, Bromus tectorum), nightshade (eastern black nightshade, Solanum ptycanthum), cocklebur (common cocklebur, Xanthium strumarium), cupgrass, woolly (woolly cupgrass, Eriochloa villosa), bermudagrass (Cynodon dactylon), sunflower, (common oilseed sunflower, Helianthus annuus), Russian thistle (Salsola kali), and velvetleaf (Abutilon theophrasti) were planted into a blend of loam soil and sand and treated preemergence with test chemicals formulated in a non-phytotoxic solvent mixture which included a surfactant.
(§2) At the same time, plants selected from these crop and weed species and also chickweed (common chickweed, Stellaria media), canarygrass (littleseed canarygrass, Phalaris minor), and deadnettle (henbit deadnettle, Lamium amplexicaule), were planted in pots containing Redi-Earth® planting medium (Scotts Company, 14111 Scottslawn Road, Marysville, Ohio 43041) comprising spaghnum peat moss, vermiculite, wetting agent and starter nutrients and treated with postemergence applications of test chemicals formulated in the same manner. Plants ranged in height from 2 to 18 cm (1- to 4-leaf stage) for postemergence treatments. Treated plants and controls were maintained in a greenhouse for 13 to 15 days, after which time all species were compared to controls and visually evaluated. Plant response ratings, summarized in Table C, are based on a scale of 0 to 100 where 0 is no effect and 100 is complete control. A dash (-) response means no test result.

morningglory = experiment: Test C postemergence; format: in vivo, Ipomoea coccinea; details: for Morningglory plant response rating: Postemergence, 31 g ai/ha, scale 0 to 100; for Plant response rating, Morningglory: postemergence
Description: as §1, §2

wheat [2] = experiment: Test A postemergence; format: in vivo, Triticum aestivum
Outline: (§3)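 Visual injury ratings, 0 = no effect to 100 = complete control, taken about 10 days after treatment against untreated controls. Test chemicals, in a non-phytotoxic surfactant-containing solvent, were sprayed onto soil preemergence or onto one- to two-leaf plants (2–10 cm) postemergence, in loam–sand soil under greenhouse conditions.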

velvetleaf [3] = experiment: Test C postemergence; format: in vivo, Abutilon theophrasti; details: postemergence; for Velvetleaf plant response rating: 62 g ai/ha, scale 0 to 100
Outline: (§4)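 Visual rating, 0–100 scale (0 no effect, 100 complete control), vs untreated controls after 13–15 d greenhouse. Pre: seeds in loam/sand, treated at sowing. Post: plants in peat-based mix, 1- to 4-leaf (2–18 cm). Solvent + surfactant formulation, non-phytotoxic.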

foxtail, giant [4] = experiment: Test A postemergence; format: in vivo, Setaria faberii
Outline: as §3

kochia = experiment: Test C postemergence; format: in vivo, Kochia scoparia; details: for Kochia plant response rating: Postemergence, 31 g ai/ha, scale 0 to 100; for Plant response rating, Kochia: postemergence
Description: as §1, §2

foxtail, giant [5] = experiment: Test C postemergence; format: in vivo, Setaria faberii; details: for Foxtail, Giant plant response rating: Postemergence, 31 g ai/ha, scale 0 to 100; for Plant response rating, Foxtail, Giant: postemergence
Outline: as §4

corn [6] = experiment: Test A postemergence; format: in vivo, Zea mays
Outline: as §3

velvetleaf [7] = experiment: Test A postemergence; format: in vivo, Abutilon theophrasti
Outline: as §3

foxtail, giant [8] = experiment: Test C preemergence; format: in vivo, Setaria faberii
Description: as §1, §2

soybean = experiment: Test C preemergence; format: in vivo, Glycine max
Description: as §1, §2

galium [9] = experiment: Test C postemergence; format: in vivo, Galium aparine; details: for Plant response rating, Galium: postemergence
Description: as §1, §2

corn [10] = experiment: Test C preemergence; format: in vivo, Zea mays
Description: as §1, §2

galium [11] = experiment: Test C preemergence; format: in vivo, Galium aparine
Outline: as §4

[12] = 250 g ai/ha, scale 0 to 100 (0 no effect, 100 complete control)
[13] = 125 g ai/ha, scale 0 to 100, 0 no effect, 100 complete control
[14] = 62 g ai/ha, scale 0 to 100, 0 no effect, 100 complete control
[15] = Postemergence, 1000 g ai/ha, visual rating after approx. 10 days, 0 to 100 scale (0 no effect, 100 complete control)
[16] = preemergence, 31 g ai/ha, scale 0 to 100 (0 no effect, 100 complete control), 13 to 15 days
[17] = preemergence, 62 g ai/ha, 13 to 15 days, scale 0 to 100, 0 = no effect, 100 = complete control
[18] = preemergence, 125 g ai/ha, scale 0 to 100, 0 is no effect, 100 is complete control
[19] = Postemergence, 500 g ai/ha, visual rating after approx. 10 days, 0 to 100 scale (0 no effect, 100 complete control)
[20] = postemergence, 125 g ai/ha, about 10 days, visual rating on 0 to 100 scale (0 no effect, 100 complete control)

## CCCNC(=O)c1cc(CC)n(Cc2cccc(OC(F)(F)F)c2)n1 [Compound 27]
Wheat [1]
  Wheat plant response rating: 15
Wheat [1]; [12]
  Plant response rating, Wheat: 20
Wheat [1]; [13]
  Plant response rating, Wheat: 15
morningglory
  Morningglory plant response rating: 5
morningglory; [12]
  Plant response rating, Morningglory: 75
morningglory; [14]
  Plant response rating, Morningglory: 60
morningglory; [13]
  Plant response rating, Morningglory: 60
Wheat [2]; [15]
  Wheat plant response rating: 40
Velvetleaf [3]
  Velvetleaf plant response rating: 15
Velvetleaf [3]; [12]
  Plant response rating, Velvetleaf: 45
Velvetleaf [3]; [13]
  Plant response rating, Velvetleaf: 20
foxtail, giant [4]; [15]
  Foxtail, Giant plant response rating: 70
kochia
  Kochia plant response rating: 35
kochia; [12]
  Plant response rating, Kochia: 95
kochia; [14]
  Plant response rating, Kochia: 70
kochia; [13]
  Plant response rating, Kochia: 80
foxtail, giant [5]
  Foxtail, Giant plant response rating: 0
foxtail, giant [5]; [12]
  Plant response rating, Foxtail, Giant: 20
foxtail, giant [5]; [14]
  Plant response rating, Foxtail, Giant: 0
foxtail, giant [5]; [13]
  Plant response rating, Foxtail, Giant: 10
Corn [6]; [15]
  Corn plant response rating: 60
Velvetleaf [7]; [15]
  Velvetleaf plant response rating: 100

## CCc1cc(C(=O)NOC(C)C)nn1Cc1cccc(OC(F)(F)F)c1 [Compound 70]
foxtail, giant [8]; Preemergence, 250 g ai/ha
  Plant response rating (scale of 0 to 100), Foxtail, Giant: 98
foxtail, giant [8]; [16]
  Foxtail, Giant plant response rating: 65
foxtail, giant [8]; [17]
  Plant response rating, Foxtail, Giant: 75
foxtail, giant [8]; [18]
  Foxtail, Giant plant response rating: 90
soybean; Preemergence, 250 g ai/ha
  Plant response rating (scale of 0 to 100), Soybean: 75
soybean; [16]
  Soybean plant response rating: 5
soybean; [17]
  Plant response rating, Soybean: 15
soybean; [18]
  Soybean plant response rating: 70
Galium [9]; Postemergence, 31 g ai/ha, scale 0 to 100
  Galium plant response rating: 70
Galium [9]; [12]
  Plant response rating, Galium: 90
Galium [9]; [14]
  Plant response rating, Galium: 70
Galium [9]; [13]
  Plant response rating, Galium: 75
Corn [10]; Preemergence, 250 g ai/ha
  Plant response rating (scale of 0 to 100), Corn: 85
Corn [10]; [16]
  Corn plant response rating: 40
Corn [10]; [17]
  Plant response rating, Corn: 60
Corn [10]; [18]
  Corn plant response rating: 70
Wheat [1]
  Wheat plant response rating: 15
Wheat [1]; [12]
  Plant response rating, Wheat: 25
Wheat [1]; [13]
  Plant response rating, Wheat: 20
Galium [11]; Preemergence, 250 g ai/ha
  Plant response rating (scale of 0 to 100), Galium: 98
Galium [11]; [16]
  Galium plant response rating: 65
Galium [11]; [17]
  Plant response rating, Galium: 95
Galium [11]; [18]
  Galium plant response rating: 98
morningglory
  Morningglory plant response rating: 5
morningglory; [12]
  Plant response rating, Morningglory: 85
morningglory; [14]
  Plant response rating, Morningglory: 45
morningglory; [13]
  Plant response rating, Morningglory: 75
Wheat [2]; [19]
  Wheat plant response rating: 70
Wheat [2]; [20]
  Wheat plant response rating: 70
Velvetleaf [3]
  Velvetleaf plant response rating: 20
Velvetleaf [3]; [12]
  Plant response rating, Velvetleaf: 55
Velvetleaf [3]; [13]
  Plant response rating, Velvetleaf: 30
foxtail, giant [4]; [19]
  Foxtail, Giant plant response rating: 90
foxtail, giant [4]; [20]
  Foxtail, Giant plant response rating: 90
kochia
  Kochia plant response rating: 50
kochia; [12]
  Plant response rating, Kochia: 70
kochia; [14]
  Plant response rating, Kochia: 55
kochia; [13]
  Plant response rating, Kochia: 55
foxtail, giant [5]
  Foxtail, Giant plant response rating: 5
foxtail, giant [5]; [12]
  Plant response rating, Foxtail, Giant: 25
foxtail, giant [5]; [14]
  Plant response rating, Foxtail, Giant: 10
foxtail, giant [5]; [13]
  Plant response rating, Foxtail, Giant: 15
Corn [6]; [19]
  Corn plant response rating: 70
Corn [6]; [20]
  Corn plant response rating: 60
Velvetleaf [7]; [19]
  Velvetleaf plant response rating: 90
Velvetleaf [7]; [20]
  Velvetleaf plant response rating: 80
